Source: patent US12110289B2, “Heterocyclic compounds, preparation methods and uses thereof” (InventisBio Co., Ltd., priority 2020, dated 2024)
Read-outs that look alike come from different tables or passages of the source.

Columns and labels:
NCI-H358 xenograft = assay: NSCLC H358 xenograft model, tumor volume; type: in vivo, BALB/c nude mice; details: Compound 145 at 5 mg/kg combined with carboplatin at 30 mg/kg; FIG. 4
Protocol: All the procedures related to animal handling, care and the treatment in this study were performed according to the guidelines approved by the Institutional Animal Care and Use Committee (IACUC) of SIPPER B&K following the guidance of the Association for Assessment and Accreditation of Laboratory Animal Care (AAALAC). At the time of routine monitoring, the animals were checked for any effects of tumor growth on normal behavior such as mobility, food and water consumption (by looking only), body weight gain/loss (body weights were measured twice weekly), eye/hair matting and any other abnormal effect. Death and observed clinical signs were recorded on the basis of the numbers of animals within each subset.
The NCI-H358, SW837, NCI-H2122 tumor cells were purchased from the American Type Culture Collection (ATCC). Cells were maintained in vitro as monolayer cultured in RPMI-1640 or DMEM medium supplemented with 10% fetal bovine serum, 50 IU/ml penicillin/streptomycin (GIBCO) at 37° C. in an atmosphere of 5% CO2 in air. The tumor cells were routinely sub cultured twice weekly by trypsin-EDTA treatment. The cells growing in an exponential growth phase were harvested and counted for tumor inoculation.
For tumor bearing models, female 6- to 8-week-old athymic BALB/c nude mice were used for human cancer cell lines. Each mouse was inoculated subcutaneously at the right flank with tumor cells (10×10^6) in 0.1 ml of PBS. The treatments were started when the average tumor size reached approximately 200-250 mm^3. Carboplatin, Cisplatin was injected twice a week by i.p. Vehicles and other test articles were given orally as a suspension by gavage once daily during the study or treatment period.
Tumor volume was calculated by measuring two perpendicular diameters using the following formula: (L×W 2)/2 in which L and W refer to the length and width tumor diameter, respectively. Results are expressed as mean and standard deviation of the mean.

[1] = tested on: Lung cancer cell line NCI-H358 containing KRas G12C mutation; assay: Assay for cell proliferation (Cell-titer Glo, 5 days); type: cell-based, human; details: Homo sapiens, NCI-H358, 120 h, NCI-H358, 5 days, Cell-titer Glo; read-out: IC50 (nM), Inhibition of NCI-H358 Cell Proliferation
Procedure, shortened: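 NCI-H358 (KRas G12C) cells, 2000 per well, attached overnight at 37 °C, 5% CO2, then treated with compound for 5 days at 0.5% DMSO final. Proliferation measured by CellTiter-Glo luminescence after 10 min at RT.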

[2] = Human hepatocyte clearance study; type: in vitro ADME; details: human, pooled cryopreserved human hepatocytes (suspension); for hepatocyte CLint at 1 µM: read-out: Human In vitro Clint (μl/min/10^6 cells); for half-life at 1 µM: read-out: Human In vitro T1/2; for CLint scaled at 1 µM: read-out: Human Scale-up Clint
Protocol: (§1) The in vitro human hepatocyte clearance of compounds described here was studied using pooled human hepatocytes purchased from BioreclamationIVT (Westbury, NY, Cat #X008001, Lot #TQJ). The assay was conducted according to manufacturer's instruction. Briefly, 10 mM stock solutions of test compounds and positive control (Verapamil) were prepared in 100% DMSO. Thawing media (50 mL) used in the study consists of 31 mL Williams E medium (GIBCO Cat #12551-032), 15 mL isotonic percoll (GE Healthcare Cat #17-0891-09), 500 uL 100× GlutaMax (GIBCO Cat #35050), 750 uL HEPES (GIBCO Cat #15630-080), 2.5 mL FBS (Corning Cat #35-076-CVR), 50 uL human insulin (GIBCO Cat #12585-014) and 5 uL dexamethasone (NICPBP). Incubation media is made of Williams E medium supplemented with 1× GlutaMax. Both thawing medium and incubation medium (serum-free) were placed in a 37° C. water bath for at least 15 minutes prior to use. Compound stock solutions were diluted to 100 μM by combining 198 μL of 50% acetonitrile/50% water and 2 μL of 10 mM stock solution. Verapamil was use as positive control in the assay. Vials of cryopreserved hepatocytes were removed from storage and thawed in a 37° C. water bath with gentle shaking. Contents of the vial were poured into the 50 mL thawing medium conical tube. Vials were centrifuged at 100 g for 10 minutes at room temperature. […] […] […] The boiled hepatocytes were used to prepare negative samples. Aliquots of 198 μL hepatocytes were dispensed into each well of a 96-well non-coated plate. The plate was placed in the incubator on an orbital shaker at 500 rpm for approximately 10 minutes. Aliquots of 2 μL of the 100 μM test compound or positive control were added into respective wells of the non-coated 96-well plate to start the reaction. This assay was performed in duplicate. The plate was incubated in the incubator on an orbital shaker at 500 rpm for the designated time points. Twenty-five microliter of contents were transferred and mixed with 6 volumes (150 μL) of cold acetonitrile with IS (200 nM imipramine, 200 nM labetalol and 200 nM diclofenac) to terminate the reaction at time points of 0, 15, 30, 60, 90 and 120 minutes. Samples were centrifuged at 3,220 g for 25 minutes and aliquots of 150 μL of the supernatants were used for LC-MS/MS analysis. For data analysis, all calculations were carried out using Microsoft Excel. Peak areas were determined from extracted ion chromatograms. The in vitro half-life (t1/2) of parent compound was determined by regression analysis of the percent parent disappearance vs. time curve. […] Scaling factors for in vivo intrinsic clearance prediction using human hepatocytes are listed as: liver weight (g liver/kg body weight): 25.7; hepatocyte concentration (10^6 cells/g liver): 99; scaling factor: 2544.3.

pooled human hepatocytes = assay: Human hepatocyte clearance study; type: in vitro ADME
Protocol: as §1

[3] = working cell density 2 × 10^6 viable cells/mL
[4] = working cell density 0.5 × 10^6 viable cells/mL
[5] = working cell density 0.5 × 10^6 viable cells/mL, scaling factor 2544.3

| SMILES | IC50 [1] [nM] | reduction of tumor volume, combined treatment vs either agent alone (NCI-H358 xenograft) | hepatocyte CLint at 1 µM [2, 3] [µL/min/1e6 cells] | half-life at 1 µM [2, 3] [h] | CLint scaled at 1 µM [2, 3] [mL/min/kg] | Human Hepatocyte Remaining Percentage @ 120 min (%) (pooled human hepatocytes; [3]) | hepatocyte CLint at 1 µM [2, 4] [µL/min/1e6 cells] | half-life at 1 µM [2, 4] [h] | CLint scaled at 1 µM [2, 5] [mL/min/kg] | Human Hepatocyte Remaining Percentage @ 120 min (%) (pooled human hepatocytes; [4]) |
| --- | --- | --- | --- | --- | --- | --- | --- | --- | --- | --- |
| C=CC(=O)N1CCN(c2nc(=O)n(-c3c(C4CC4)nc(C)nc3C3CC3)c3nc(-c4c(O)cccc4F)c(F)cc23)[C@@H](C)C1 [Compound 28] | 23.3 | – | – | – | – | – | 8.4 | 2.73 | 21.5 | 61.1 |
| C=CC(=O)N1CCN(c2nc(=O)n(-c3c(C4CC4)nc(C)nc3C3CC3)c3nc(-c4c(N)cccc4F)c(F)cc23)[C@@H](C)C1 [Compound 29] | 11.4 | – | – | – | – | – | 8.5 | 2.72 | 21.7 | 60.8 |
| C=CC(=O)N1CCN(c2nc(=O)n(-c3c(C4CC4)ncnc3C3CC3)c3nc(-c4c(O)cccc4F)c(F)cc23)[C@@H](C)C1 [Compound 40] | 7.5 | – | 12.7 | 0.91 | 32.3 | 20.7 | – | – | – | – |
| C=CC(=O)N1C[C@H](C)N(c2nc(=O)n(-c3c(C4CC4)nc(C)nc3C3CC3)c3nc(-c4c(O)cccc4F)c(F)cc23)C[C@H]1C [Compound 52] | 22.8 | – | – | – | – | – | 7.3 | 3.17 | 18.5 | 65.3 |
| C=CC(=O)N1CCN(c2nc(=O)n(-c3ccc4c(ncn4C)c3C(C)C)c3nc(-c4ccccc4F)c(Cl)cc23)[C@@H](C)C1 [Compound 72] | 13.1 | – | – | – | – | – | 13.3 | 1.73 | 34 | 41.2 |
| C=CC(=O)N1C[C@H](C)N(c2nc(=O)n(-c3c(C4CC4)ncnc3C3CC3)c3nc(-c4ccccc4F)c(Cl)cc23)C[C@H]1C [Compound 128] | 8.7 | – | 10.3 | 1.12 | 26.1 | 39.9 | – | – | – | – |

Now those with a lower IC50 [1], led by results:

| IC50 [1] [nM] | SMILES | reduction of tumor volume, combined treatment vs either agent alone (NCI-H358 xenograft) | hepatocyte CLint at 1 µM [2, 3] [µL/min/1e6 cells] | half-life at 1 µM [2, 3] [h] | CLint scaled at 1 µM [2, 3] [mL/min/kg] | Human Hepatocyte Remaining Percentage @ 120 min (%) (pooled human hepatocytes; [3]) | hepatocyte CLint at 1 µM [2, 4] [µL/min/1e6 cells] | half-life at 1 µM [2, 4] [h] | CLint scaled at 1 µM [2, 5] [mL/min/kg] | Human Hepatocyte Remaining Percentage @ 120 min (%) (pooled human hepatocytes; [4]) |
| --- | --- | --- | --- | --- | --- | --- | --- | --- | --- | --- |
| 6.9 | C=CC(=O)N1CCN(c2nc(=O)n(-c3c(C4CC4)ncnc3C3CC3)c3nc(-c4c(N)cccc4F)c(F)cc23)[C@@H](C)C1 [Compound 41] | – | 8.2 | 1.41 | 20.9 | 38.9 | – | – | – | – |
| 6.1 | C=CC(=O)N1CCN(c2nc(=O)n(-c3c(C4CC4)ncnc3C3CC3)c3nc(-c4c(O)cccc4F)c(Cl)cc23)[C@@H](C)C1 [Compound 125] | – | 14.5 | 0.8 | 36.8 | 16.5 | – | – | – | – |
| 3.5 | C=CC(=O)N1C[C@H](C)N(c2nc(=O)n(-c3c(C4CC4)ncnc3C3CC3)c3nc(-c4c(O)cccc4F)c(Cl)cc23)C[C@H]1C [Compound 127] | – | 4.4 | 2.64 | 11.1 | 55.5 | – | – | – | – |
| 2.4 | C=CC(=O)N1CCN(c2nc(=O)n(-c3c(C4CC4)ncnc3C3CC3)c3nc(-c4c(N)cccc4F)c(Cl)cc23)[C@@H](C)C1 [Compound 124] | – | 8.5 | 1.35 | 21.7 | 37.5 | – | – | – | – |
| 1.4 | C=CC(=O)N1C[C@H](C)N(c2nc(=O)n(-c3c(F)cc4c(ncn4C)c3C(C)C)c3nc(-c4c(N)cccc4F)c(F)cc23)C[C@H]1C (atropisomer, axis not shown) [Compound 145] | much better reduction of tumor volume | 1 | 11.5 | 2.6 | 82.9 | – | – | – | – |
